Results taken from publication PMC9530166, “Allosteric regulation of glycogen breakdown by the second messenger cyclic di-GMP” (Nature Communications, 2022).

Columns and labels:
His6-GlgX = experiment: Bicinchoninic acid (BCA) reducing-end enzyme assay, wild-type GlgX; assay type: biochemical, Streptomyces venezuelae; details: for stimulation of GlgX hydrolysis of substrate: 1 µM His6-GlgX, 50 µM c-di-GMP
Excerpt: Glycogen debranching enzymes hydrolyze α-(1→6)-linked glucan branches, producing malto-oligosaccharides with reducing ends[7]. The bicinchoninic acid (BCA) assay allows accurate photometric determination of reducing ends from oligosaccharides and is based on the reduction of Cu^2+ to Cu^+. A purple copper bicinchoninate complex with an absorbance maximum at 562 nm forms from Cu^+ and bicinchoninate. […] In addition, we tested the effect of c-di-GMP on GlgX activity by using polysaccharides with different degrees of α-(1→6)-linked glucans as a substrate (Fig. 2b). While glycogen contains α-(1→6)-linked glucan branches every 8–10 residue, amylose is essentially an unbranched chain of α−1,4-linked glucose subunits. Amylopectin is composed of α−1,4-linked glucose units with α-(1→6)-linkages at intervals of ∼20 units. Pullulan is a polysaccharide polymer consisting of maltotriose units in which the three glucose units are connected by α−1,4-glycosidic bonds. Consecutive maltotriose units are linked by a α−1,6-glycosidic bond.
(§1) Fig. 2 c-di-GMP stimulates glycogen breakdown activity of GlgX in vitro. a Bicinchoninic acid (BCA) in vitro enzyme assay. The purple copper bicinchoninate complex indicating GlgX-mediated generation of reducing ends in glycogen was quantified by photometric measurements at 562 nm. A562 values were converted into reducing ends [µM glucose equivalents] based on D-glucose as a standard. Reactions contained 0.05% (w/v) glycogen from rabbit, 1 µM GlgX and increasing concentrations of c-di-GMP (0–100 µM). Source data are provided as a Source data file. b BCA assay containing 0.05% of either glycogen from rabbit, pullulan, amylopectin from maize or amylose from potato as substrates. Where appropriate, 1 µM GlgX or 50 µM c-di-GMP were added to the reaction samples. Source data are provided as a Source data file. c BCA assay as in a with or without c-di-GMP (50 µM), 0.05% glycogen from rabbit (S) and 1 µM Vnz25270, GlgX, the active site mutants GlgXD342A, GlgXE378A, GlgXD342A+E378A, or the c-di-GMP-binding mutant variant GlgXDETR49-52 as indicated. The experiment was performed three times, each time with two technical replicates. The data points represent the mean ± SD of six data points. Source data are provided as a Source data file.
Hydrolysis of carbohydrates was assessed in vitro by measuring the accumulation of reducing sugar ends using the BCA assay[42] and D-glucose as a standard for calibration (Supplementary Fig. 11). Purified enzyme was diluted to […] in 20 mM (N-2-hydroxyethylpiperazine-N′−2-ethanesulfonic acid) HEPES (pH 7.5; ionic strength, 160 mM [adjusted with NaCl]) containing 10 mM MgCl2 and […] c-di-GMP (BioLog). Samples were incubated at rt for 5 min and reactions were initiated by the addition of 0.05% of the relevant carbohydrate provided by Sigma-Aldrich: glycogen from rabbit (cat. no G8876); amylose from potato (cat. no A0512); amylopectin from maize (cat. no. 10120); and pullulan (P4516). The mixture was incubated at 37 °C in a heat block for 1 h. Next, an equal volume of BCA reagent solution (250 mM Na2CO3; 144 mM NaHCO3; 2.5 mM sodium bicinconinic acid (Sigma); 6 mM L-serine (Roth); 2.5 mM CuSO4 x 5 H2O (Roth)) was added, reactions were vortexed vigorously and incubated at 80 °C in a heat block for 30 min. Assay mixtures were then cooled to rt. 125 μl sample aliquots were transferred in duplicates to a 96 well plate and the absorbance at 562 nm was measured using a plate reader.

BldD = biological target: BldD; design: method as in PMID 25171413, PMID 31810759; details: cited from earlier work
His6-GlgXD342A = experiment: BCA reducing-end enzyme assay, GlgXD342A; assay type: biochemical, Streptomyces venezuelae; details: 50 µM c-di-GMP, 0.05% glycogen from rabbit, 1 µM enzyme
Description: as §1, with “The experiment was performed three times, each time with two technical replicates. The data points represent the mean ± SD of six data points. Source data are provided as a Source data file.” left out
Hydrolysis of carbohydrates was assessed in vitro by measuring the accumulation of reducing sugar ends using the BCA assay[42] and D-glucose as a standard for calibration (Supplementary Fig. 11). […] 125 μl sample aliquots were transferred in duplicates to a 96 well plate and the absorbance at 562 nm was measured using a plate reader.

Nc1nc2c(ncn2[C@@H]2O[C@@H]3CO[P@](=O)(O)O[C@H]4[C@@H](O)[C@H](n5cnc6c(=O)[nH]c(N)nc65)O[C@@H]4CO[P@](=O)(O)O[C@H]3[C@H]2O)c(=O)[nH]1 [c-di-GMP, bis-(3′−5′)-cyclic diguanosine monophosphate]
c-di-GMP concentration with saturating enzymatic activity (His6-GlgX; 0.05% glycogen from rabbit, 1 µM GlgX, c-di-GMP 3.125–100 µM): 50 µM | stimulation of GlgX hydrolysis of substrate (His6-GlgX; substrate 0.05% amylopectin): stimulates | stimulation of GlgX hydrolysis of substrate (His6-GlgX; substrate 0.05% amylose): no stimulation | stimulation of GlgX hydrolysis of substrate (His6-GlgX; substrate 0.05% glycogen): stimulates | stimulation of GlgX hydrolysis of substrate (His6-GlgX; substrate 0.05% pullulan): stimulates | Kd (BldD): 2.5 ± 0.6 µM | stimulation of enzyme activity by c-di-GMP (His6-GlgXD342A): could not be stimulated
